# Patent US20120122727A1, “IN VITRO METHOD FOR PREDICTING WHETHER A COMPOUND IS GENOTOXIC IN VIVO” (priority 2009, published 2012)
# Columns and labels:
# [1] = system: primary mouse hepatocytes; test: Class prediction true GTX vs false GTX by PAM from hepatocyte gene expression; details: PAM class prediction
# Experimental: PAM uses gene expression data to calculate the shrunken centroid for each class and identifies the specific genes that determine the centroid most. Based on the nearest shrunken centroid, PAM is also capable of predicting to which class an unknown sample belongs (27). Class prediction was performed after 24 h and 48 h of exposure.
# For this analysis, the gene list with differentially expressed probe sets was used. For each exposure period, 3 sets of genes (classifiers) were generated by PAM, using all ten treatments, based on the smallest estimated misclassification error rate (generated by 10-fold cross-validation) and a >80% predicted test probability. This was done by using 2 experiments as training set and the third experiment for validation. This was done for all 3 possible combinations, each time leaving out another experiment. For each time point, the classifiers that were in common between the three training sets, were set as the final classifier set for that time point
# For the purpose of validating the class discrimination models with the final classifier sets, gene expression data were generated for two additional true GTX compounds, phenacetin and DMBA, and for three False GTX compounds, cur, ethylacrylate and resorcinol and the vehicle control for exposure periods of 24 and 48 h.
# [2] = known class of the validation compound (GTX = true GTX, FP-GTX = false GTX); cited from earlier work
compound,measurement,setting,value
CCOc1ccc(NC(C)=O)cc1 [Phen],Prediction 24 h Exp 1,"[1]; 24 h, Exp 1",GTX
same,Prediction 24 h Exp 2,"[1]; 24 h, Exp 2",GTX
same,Prediction 24 h Exp 3,"[1]; 24 h, Exp 3",GTX
same,Prediction 48 h Exp 1,"[1]; 48 h, Exp 1",FP-GTX
same,Prediction 48 h Exp 2,"[1]; 48 h, Exp 2",FP-GTX
same,Prediction 48 h Exp 3,"[1]; 48 h, Exp 3",FP-GTX
same,Genotoxic class,[2],GTX
